Results published in patent US20080021026A1, “BENZOTHIOPHENE INHIBITORS OF RHO KINASE” (priority 2006, published 2008).

Legend:
[1] = target: T1, recombinant N-terminal GST-tagged human Rho kinase 1 (ROCK1, amino acids 1-535) (Homo sapiens, UniProt Q13464); test: In vitro Rho kinase assay (luciferase-based ATP consumption), ROCK1; format: biochemical; settings: recombinant GST-tagged human ROCK1, luciferase-based ATP consumption; read-out: ROCK1 IC50
T1 construct: ROCK1, amino acids 1-535; purchased Invitrogen Inc. PV-3691
T1 sequence (Q13464 1-535): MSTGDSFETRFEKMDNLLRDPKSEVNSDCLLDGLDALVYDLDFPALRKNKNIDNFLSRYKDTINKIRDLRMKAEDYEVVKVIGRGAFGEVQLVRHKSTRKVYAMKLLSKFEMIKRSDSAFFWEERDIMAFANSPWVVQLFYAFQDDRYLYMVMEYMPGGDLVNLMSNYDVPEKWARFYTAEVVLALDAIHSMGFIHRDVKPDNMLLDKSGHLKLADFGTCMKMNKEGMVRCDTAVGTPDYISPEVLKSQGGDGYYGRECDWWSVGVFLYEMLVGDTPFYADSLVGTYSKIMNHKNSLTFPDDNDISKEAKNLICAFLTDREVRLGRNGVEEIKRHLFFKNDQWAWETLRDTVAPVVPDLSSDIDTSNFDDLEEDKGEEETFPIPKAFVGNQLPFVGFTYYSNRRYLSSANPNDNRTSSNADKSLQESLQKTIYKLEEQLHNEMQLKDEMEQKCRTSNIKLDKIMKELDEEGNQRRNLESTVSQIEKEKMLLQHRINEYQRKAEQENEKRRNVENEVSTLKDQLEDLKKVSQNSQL
Procedure, shortened: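 GST-ROCK1 (aa 1-535) at 0.82 μg/ml with 100 μg/ml S6 peptide and 3 µM ATP in Tris pH 7.5 buffer with MgCl2, CaCl2, EGTA, BSA; compound added after reaction start, 2 h at 30 °C. Remaining ATP read by luciferase luminescence; efficacy as percent of H-1152P positive control.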

[2] = target: T2, recombinant N-terminal GST-tagged human Rho kinase 2 (ROCK2, amino acids 1-552) (Homo sapiens, UniProt O75116); test: In vitro Rho kinase assay (luciferase-based ATP consumption), ROCK2; format: biochemical; settings: recombinant GST-tagged human ROCK2, luciferase-based ATP consumption; read-out: ROCK2 IC50
T2 construct: ROCK2, amino acids 1-552; purchased Invitrogen Inc. PV3759
T2 sequence (O75116 1-552): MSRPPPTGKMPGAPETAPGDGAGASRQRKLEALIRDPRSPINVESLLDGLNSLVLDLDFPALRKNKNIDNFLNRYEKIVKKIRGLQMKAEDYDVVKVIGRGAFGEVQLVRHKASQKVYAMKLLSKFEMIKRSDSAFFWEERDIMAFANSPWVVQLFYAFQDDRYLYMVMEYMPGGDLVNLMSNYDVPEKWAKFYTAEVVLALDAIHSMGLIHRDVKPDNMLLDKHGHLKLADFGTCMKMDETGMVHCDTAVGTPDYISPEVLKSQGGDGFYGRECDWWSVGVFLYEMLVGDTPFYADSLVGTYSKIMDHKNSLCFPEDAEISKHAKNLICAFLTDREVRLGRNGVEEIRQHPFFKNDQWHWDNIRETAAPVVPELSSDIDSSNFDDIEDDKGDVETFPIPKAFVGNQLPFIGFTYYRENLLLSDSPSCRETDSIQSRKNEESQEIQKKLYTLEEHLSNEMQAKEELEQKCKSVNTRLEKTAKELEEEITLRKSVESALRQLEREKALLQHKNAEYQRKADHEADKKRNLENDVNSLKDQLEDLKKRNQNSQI
Procedure, shortened: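 GST-ROCK2 (aa 1-552, 0.82 μg/ml) with 100 μg/ml S6 peptide and 3 µM ATP in Tris pH 7.5 buffer with MgCl2/CaCl2/EGTA/BSA, compound added just after reaction start, 2 h at 30 °C. Remaining ATP read by luciferase luminescence. Efficacy expressed as percentage of H-1152P positive control.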

Row | Compound | IC50 [1] [µM] | IC50 [2] [µM]
1 | COc1cccc(Sc2ccc3sc(-c4ccnc(N)n4)c(C)c3c2)c1 [Example 83, 4-(5-(3-Methoxyphenylthio)-3-methylbenzo[b]thiophen-2-yl)pyrimidin-2-amine] | < 5 | < 5
2 | Cc1c(-c2ccnc(N)n2)sc2ccc(Sc3cccc(O)c3)cc12 [Example 84, 3-(2-(2-Aminopyrimidin-4-yl)-3-methylbenzo[b]thiophen-5-ylthio)phenol] | < 5 | < 5
3 | COC(=O)c1cccc(Sc2ccc3sc(-c4ccnc(N)n4)c(C)c3c2)c1 [Example 85, Methyl 3-(2-(2-aminopyrimidin-4-yl)-3-methylbenzo[b]thiophen-5-ylthio)benzoate] | < 5 | < 5
4 | Cc1c(-c2ccnc(N)n2)sc2ccc(Sc3cccc(C(=O)O)c3)cc12 [Example 86, 3-(2-(2-Aminopyrimidin-4-yl)-3-methylbenzo[b]thiophen-5-ylthio)benzoic acid] | < 5 | < 5
5 | Cc1c(-c2ccnc(N)n2)sc2ccc(C(=O)c3ccccc3)cc12 [Example 87, (2-(2-Aminopyrimidin-4-yl)-3-methylbenzo[b]thiophen-5-yl)(phenyl)methanone] | > 5 | < 5
6 | Cc1c(-c2ccnc(N)n2)sc2ccc(-c3ccccc3)cc12 [Example 88, 4-(3-Methyl-5-phenylbenzo[b]thiophen-2-yl)pyrimidin-2-amine] | < 5 | > 5
7 | COc1cccc(C#Cc2ccc3sc(-c4ccnc(N)n4)c(C)c3c2)c1 [Example 89, 4-(5-((3-Methoxyphenyl)ethynyl)-3-methylbenzo[b]thiophen-2-yl)pyrimidin-2-amine] | > 5 | > 5
8 | COc1cccc(CCc2ccc3sc(-c4ccnc(N)n4)c(C)c3c2)c1 [Example 90, 4-(5-(3-Methoxyphenethyl)-3-methylbenzo[b]thiophen-2-yl)pyrimidin-2-amine] | > 5 | > 5
9 | Cc1c(-c2ccnc(N)n2)oc2ccc(Br)cc12 [Example 91, 4-(5-Bromo-3-methylbenzofuran-2-yl)pyrimidin-2-amine] | < 5 | < 5
10 | Cc1c(-c2ccnc(N)n2)oc2ccc(Cc3cccc(O)c3)cc12 [Example 92, 3-((2-(2-Aminopyrimidin-4-yl)-3-methylbenzofuran-5-yl)methyl)phenol] | < 5 | < 5
11 | COc1cc(NC(=O)c2sc3nc(-c4ccncc4)ccc3c2N)cc(OC)c1OC [Example 94] | < 5 | < 5
12 | CC(=O)NCc1ccc2sc(-c3ccnc(N)n3)c(C)c2c1 [Example 95, CC(═O)NCc1ccc2sc(c(C)c2c1)-c3ccnc(N)n3] | > 5 | > 5
13 | Cc1c(-c2ccnc(N)n2)sc2ccc(CNC(=O)C=O)cc12 [Example 96, Cc1c(sc2ccc(CNC(═O)C═O)cc12)-c3ccnc(N)n3] | > 5 | > 5
14 | Cc1c(-c2ccnc(N)n2)sc2ccc(CNC(=O)CC#N)cc12 [Example 97, Cc1c(sc2ccc(CNC(═O)CC#N)cc12)-c3ccnc(N)n3] | < 5 | < 5
15 | Cc1c(-c2ccnc(N)n2)sc2ccc(CNC(=O)C(C)O)cc12 (centres unmarked) [Example 98, C[C](O)C(═O)NCc1ccc2sc(c(C)c2c1)-c3ccnc(N)n3] | > 5 | < 5
16 | CCC(=O)C(=O)NCc1ccc2sc(-c3ccnc(N)n3)c(C)c2c1 [Example 99, CCC(═O)C(═O)NCc1ccc2sc(c(C)c2c1)-c3ccnc(N)n3] | < 5 | < 5
17 | Cc1c(-c2ccnc(N)n2)sc2ccc(CNC(=O)C(C)(C)C)cc12 [Example 100, Cc1c(sc2ccc(CNC(═O)C(C)(C)C)cc12)-c3ccnc(N)n3] | < 5 | < 5
18 | Cc1c(-c2ccnc(N)n2)sc2ccc(CNC(=O)CC(C)C)cc12 [Example 101, CC(C)CC(═O)NCc1ccc2sc(c(C)c2c1)-c3ccnc(N)n3] | < 5 | < 5
19 | Cc1c(-c2ccnc(N)n2)sc2ccc(CNC(=O)c3cnc[nH]3)cc12 [Example 102, Cc1c(sc2ccc(CNC(═O)c3cnc[nH]3)cc12)-c4ccnc(N)n4] | < 5 | < 5
20 | Cc1c(-c2ccnc(N)n2)sc2ccc(CNC(=O)c3ncc[nH]3)cc12 [Example 103, Cc1c(sc2ccc(CNC(═O)c3ncc[nH]3)cc12)-c4ccnc(N)n4] | < 5 | < 5
21 | Cc1c(-c2ccnc(N)n2)sc2ccc(CNC(=O)C3=CCCC3)cc12 [Example 104, Cc1c(sc2ccc(CNC(═O)C3═CCCC3)cc12)-c4ccnc(N)n4] | < 5 | < 5
22 | Cc1c(-c2ccnc(N)n2)sc2ccc(CNC(=O)C(F)(F)F)cc12 [Example 105, Cc1c(sc2ccc(CNC(═O)C(F)(F)F)cc12)-c3ccnc(N)n3] | > 5 | < 5

Row | Compound | IC50 [1] [µM] | IC50 [2] [µM]
23 | Cc1c(-c2ccnc(N)n2)sc2ccc(CNC(=O)C3CCCO3)cc12 (centres unmarked) [Example 106, Cc1c(sc2ccc(CNC(═O)C3CCCO3)cc12)-c4ccnc(N)n4] | > 5 | < 5
24 | CC(=O)NCC(=O)NCc1ccc2sc(-c3ccnc(N)n3)c(C)c2c1 [Example 107, CC(═O)NCC(═O)NCc1ccc2sc(c(C)c2c1)-c3ccnc(N)n3] | > 5 | < 5
25 | Cc1c(-c2ccnc(N)n2)sc2ccc(CNC(=O)c3ccccc3)cc12 [Example 108, Cc1c(sc2ccc(CNC(═O)c3ccccc3)cc12)-c4ccnc(N)n4] | < 5 | > 5
26 | Cc1c(-c2ccnc(N)n2)sc2ccc(CNC(=O)c3cccnc3)cc12 [Example 109, Cc1c(sc2ccc(CNC(═O)c3cccnc3)cc12)-c4ccnc(N)n4] | > 5 | < 5
27 | Cc1c(-c2ccnc(N)n2)sc2ccc(CNC(=O)c3ccncc3)cc12 [Example 110, Cc1c(sc2ccc(CNC(═O)c3ccncc3)cc12)-c4ccnc(N)n4] | > 5 | < 5
28 | Cc1c(-c2ccnc(N)n2)sc2ccc(CNC(=O)c3ccccn3)cc12 [Example 111, Cc1c(sc2ccc(CNC(═O)c3ccccn3)cc12)-c4ccnc(N)n4] | > 5 | < 5
29 | Cc1c(-c2ccnc(N)n2)sc2ccc(CNC(=O)C(O)CCl)cc12 (centres unmarked) [Example 112, Cc1c(sc2ccc(CNC(═O)C(O)CCl)cc12)-c3ccnc(N)n3] | > 5 | < 5
30 | Cc1cc(C(=O)NCc2ccc3sc(-c4ccnc(N)n4)c(C)c3c2)n[nH]1 [Example 113, Cc1cc(n[nH]1)C(═O)NCc2ccc3sc(c(C)c3c2)-c4ccnc(N)n4] | > 5 | < 5
31 | Cc1c(-c2ccnc(N)n2)sc2ccc(CNC(=O)c3cn(C)cn3)cc12 [Example 114, Cc1c(sc2ccc(CNC(═O)c3cn(C)cn3)cc12)-c4ccnc(N)n4] | > 5 | < 5
32 | Cc1c(-c2ccnc(N)n2)sc2ccc(CNC(=O)C3CCCCC3)cc12 [Example 115, Cc1c(sc2ccc(CNC(═O)C3CCCCC3)cc12)-c4ccnc(N)n4] | > 5 | < 5
33 | Cc1c(-c2ccnc(N)n2)sc2ccc(CNC(=O)c3cscn3)cc12 [Example 116, Cc1c(sc2ccc(CNC(═O)c3cscn3)cc12)-c4ccnc(N)n4] | > 5 | < 5
34 | CCOC(=O)CC(=O)NCc1ccc2sc(-c3ccnc(N)n3)c(C)c2c1 [Example 117, CCOC(═O)CC(═O)NCc1ccc2sc(c(C)c2c1)-c3ccnc(N)n3] | > 5 | < 5
35 | Cc1cccc(C(=O)NCc2ccc3sc(-c4ccnc(N)n4)c(C)c3c2)c1 [Example 118, Cc1cccc(c1)C(═O)NCc2ccc3sc(c(C)c3c2)-c4ccnc(N)n4] | > 5 | > 5
36 | Cc1ccccc1C(=O)NCc1ccc2sc(-c3ccnc(N)n3)c(C)c2c1 [Example 119, Cc1ccccc1C(═O)NCc2ccc3sc(c(C)c3c2)-c4ccnc(N)n4] | > 5 | < 5
37 | Cc1ccc(C(=O)NCc2ccc3sc(-c4ccnc(N)n4)c(C)c3c2)cc1 [Example 120, Cc1ccc(cc1)C(═O)NCc2ccc3sc(c(C)c3c2)-c4ccnc(N)n4] | > 5 | < 5
38 | Cc1c(-c2ccnc(N)n2)sc2ccc(CNC(=O)c3cccc(O)c3)cc12 [Example 121, Cc1c(sc2ccc(CNC(═O)c3cccc(O)c3)cc12)-c4ccnc(N)n4] | < 5 | < 5
39 | Cc1c(-c2ccnc(N)n2)sc2ccc(CNC(=O)c3ccccc3O)cc12 [Example 122, Cc1c(sc2ccc(CNC(═O)c3ccccc3O)cc12)-c4ccnc(N)n4] | > 5 | < 5
40 | Cc1c(-c2ccnc(N)n2)sc2ccc(CNC(=O)c3ccc(F)cc3)cc12 [Example 123, Cc1c(sc2ccc(CNC(═O)c3ccc(F)cc3)cc12)-c4ccnc(N)n4] | > 5 | < 5
41 | Cc1c(-c2ccnc(N)n2)sc2ccc(CNC(=O)c3cccc(F)c3)cc12 [Example 124, Cc1c(sc2ccc(CNC(═O)c3cccc(F)c3)cc12)-c4ccnc(N)n4] | > 5 | < 5
42 | CCCCCCCC(=O)NCc1ccc2sc(-c3ccnc(N)n3)c(C)c2c1 [Example 125] | > 5 | < 5
43 | Cc1c(-c2ccnc(N)n2)sc2ccc(CNC(=O)c3ccc(C#N)cc3)cc12 [Example 126, Cc1c(sc2ccc(CNC(═O)c3ccc(cc3)C#N)cc12)-c4ccnc(N)n4] | < 5 | < 5
